Each structure is given as a SMILES string. Counter-ions that a name gives are not always drawn.

This test relates to CYR61 gene expression. Nature of the test: CYR61 gene expression in ARPE-19/HPV16 cells treated for 24 hours, Affymetrix probe sets. Also noted: amplitude: scale not given here. The conditions noted are these: 10 uM; for Fold (CYR61 Downregulation): versus vehicle. In kind it is cell-based, human. The protocol:
In a study leading to embodiments of the invention, a human retinal pigment epithelial cell line (ARPE-19/HPV16) was separately treated with an anthracycline (doxorubicin or daunorubicin), a statin (simvastatin or lovastatin), or vehicle for 24 hours and gene expression for […] probe sets covering 12,490 genes was generated using an Affymetrix instrument. The effects of these compounds on the expression of CYR61 are shown below in Table 1.

In the case of `COc1cccc2c1C(=O)c1c(O)c3c(c(O)c1C2=O)C[C@@](O)(C(C)=O)C[C@@H]3O[C@H]1C[C@H](N)[C@H](O)[C@H](C)O1` [Daunorubicin HCl], where the note is “probe 201289_at”, the Rank is given as 22278, the amplitude is on record as −1.921 and the “Fold (CYR61 Downregulation)” value is −49.81. In addition, for the setting “probe 210764_s_at”, the Rank is recorded as 22239, the amplitude is listed as −1.8272 and the “Fold (CYR61 Downregulation)” value is −22.15.

`COc1cccc2c1C(=O)c1c(O)c3c(c(O)c1C2=O)C[C@@](O)(C(=O)CO)C[C@@H]3O[C@H]1C[C@H](N)[C@H](O)[C@H](C)O1` [Doxorubicin HCl]: where the note is “probe 201289_at”, the Rank worked out at 22282, the amplitude is −1.967 and the “Fold (CYR61 Downregulation)” value is −118.5. In addition, where the note is “probe 210764_s_at”, the Rank is reported as 22272, the amplitude is −1.925 and the “Fold (CYR61 Downregulation)” value was −52.26.

Take `CC(=O)[C@]1(O)Cc2c(O)c3c(c(O)c2[C@@H](O[C@H]2C[C@H](N)[C@H](O)[C@H](C)O2)C1)C(=O)c1ccccc1C3=O` [Idarubicin HCl]: where the note is “probe 201289_at”, the Rank is recorded as 22273, the amplitude was −1.899 and the “Fold (CYR61 Downregulation)” value is given as −38.72. Further, for the setting “probe 210764_s_at”, the Rank worked out at 22267, the amplitude was −1.875 and the “Fold (CYR61 Downregulation)” value is −31.13.

Consider `CC[C@H](C)C(=O)O[C@H]1C[C@@H](C)C=C2C=C[C@H](C)[C@H](CC[C@@H]3C[C@@H](O)CC(=O)O3)[C@H]21` [Lovastatin], for which, for the setting “probe 201289_at”, the Rank amounted to 22271, the amplitude was −1.412 and the “Fold (CYR61 Downregulation)” value is reported as −5.799. For the same compound, where the note is “probe 210764_s_at”, the Rank turned out to be 22264, the amplitude is reported as −1.297 and the “Fold (CYR61 Downregulation)” value is −4.687.

As to `CCC(C)(C)C(=O)O[C@H]1C[C@@H](C)C=C2C=C[C@H](C)[C@H](CC[C@@H]3C[C@@H](O)CC(=O)O3)[C@H]21` [Simvastatin], where the note is “probe 201289_at”, the Rank worked out at 22255, the amplitude was −1.378 and the “Fold (CYR61 Downregulation)” value is −5.428. Also, under “probe 210764_s_at”, the Rank was found to be 22262, the amplitude is given as −1.3931 and the “Fold (CYR61 Downregulation)” value is on record as −5.591.

(Values after US20220401464A1, “TREATMENT OF CYR61- AND VEGF-MEDIATED CONDITIONS” (VANDA PHARMACEUTICALS INC., priority 2013, published 2022).)
